In assay [1] the target is full-length FLAG-tagged B-Raf(V600E) (Homo sapiens (Human), UniProt P15056, V600E). The assay is described as follows: BRAF V600E enzyme assay (TR-FRET competitive displacement). It is filed as binding. To be noted: averaged IC50; TR-FRET tracer displacement, 60 min. In short, it runs like this:
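Displacement of 50 nM Tracer 1710 from 5 nM full-length N-terminally FLAG-tagged B-Raf(V600E), detected by TR-FRET with 0.5 nM Eu anti-FLAG antibody, in 25 mM HEPES pH 7.4, 10 mM MgCl2, 2% DMSO; 60 min at ~22 °C. Compounds 11-point, 3-fold from 10 μM; IC50 from 4-parameter fit at 50 POC.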

For assay [2], the system named is NCI-H1666 (BRAF G466V) cells. The assay is described as follows: Cellular phospho-ERK inhibition assay in NCI-H1666 cells. It is filed as cell-based. To be noted: Homo sapiens, 1 hour treatment, read-out: IC50 NCI-H1666 pERK. The protocol: (§1) The compounds of Example 13, Example 14 and Example 126 were evaluated in a phospho-ERK assay in two mutant BRAF Class III cell lines: NCI-H1666 (BRAF^G466V) and WM3629 cells (BRAF^D594G/NRAS^G12D). NCI-H1666 cells were obtained from the American Type Culture Collection (ATCC, Rockville, MD) and WM3629 cells were obtained from Rockland Immunochemicals (Limerick, PA). Cells were maintained in RPMI growth medium containing 10% FBS.
(§2) Cells were harvested according to standard protocols, counted, and plated onto flat-bottom, 96-well tissue culture plates (Costar #3599) at 2.5×10^4 cells/well in 100 μL/well of growth medium containing 10% FBS. After an overnight incubation at 37° C. with 5% CO2 cells were treated for 1 hour at 37° C., 5% CO2 with inhibitors prepared as a 9-point, 1:3.33 fold dilution series with final compound concentrations ranging from 66 pM-10 μM and a constant DMSO concentration of 0.25%. Control wells contained either 0.25% DMSO alone (uninhibited control) or 10 μM binimetinib (complete inhibition control). The levels of phosphorylated ERK were determined using an In Cell Western protocol: following compound incubation, growth medium was discarded, and cells were fixed with 0.4% formaldehyde in PBS for 20 minutes at room temperature. Cells were permeabilized with 100% methanol for 10 minutes at room temperature. Plates were washed with PBS containing 0.05% Tween-20 and blocked for 1 hour at room temperature with LI-COR Blocking Buffer (LI-COR Biosciences; Cat. #927-40000). Plates were then incubated for 2 hours at room temperature with 50 μL of a 1:400 dilution of anti-phospho-ERK1/2 (Thr202/Tyr204) (Cell Signaling; Cat. #9101) and a 1:1000 dilution of anti-GAPDH (Millipore; Cat. #MAB374) in LI-COR blocking buffer containing 0.05% Tween-20. […] Plates were analyzed by reading on an Odyssey CLx infrared scanner. […]
(§3) [formula] • Where: • Xmax d Average Uninhibited Controls • Xmin Average Complete Inhibition Controls • IC50 values were then calculated using a 4-parameter fit in XLfit software and are shown in Table A2.

Assay [3] relates to WM3629 cells (BRAF D594G/NRAS G12D). The assay is described as follows: Cellular phospho-ERK inhibition assay in WM3629 cells. It is filed as cell-based. To be noted: 1 hour treatment, read-out: IC50 WM3629 pERK. The protocol: as §1, §2, §3
In assay [4] the test system is NCI-H1666 (BRAF G466V) cells. The assay is described as follows: Proliferation assay (CellTiter-Glo) in NCI-H1666 cells. To be noted: Homo sapiens, 3-5 day incubation. It is filed as cell-based. The protocol:
(§4) The compounds of Example 13, Example 14 and Example 126 were evaluated in a proliferation assay in two mutant BRAF Class III cell lines: NCI-H1666 (BRAF^G466V) and WM3629 cells (BRAF^D594G/NRAS^G12D). NCI-H1666 cells were obtained from the American Type Culture Collection (ATCC, Rockville, MD) and WM3629 cells were obtained from Rockland Immunochemicals (Limerick, PA). Cells were maintained in RPMI growth medium containing 10% FBS.
(§5) Cells were harvested according to standard protocols, counted, and plated onto flat-bottom, 96-well tissue culture plates (Costar #3599) at 2000-5000 cells/well in 100 μL/well of growth medium containing 10% FBS. Cells were incubated at 37° C. with 5% CO2 overnight then treated with inhibitors prepared as a 9-point, 1:3.33 fold dilution series with final compound concentrations ranging from 66 pM-10 μM and a constant DMSO concentration of 0.25%. Control wells contained 0.25% DMSO alone. After a 3-5 day incubation at 37° C., 5% CO2, cell viability was determined by adding 100 μL CellTiter-Glo® Reagent (Promega) to each well and incubated for 15 minutes at room temperature. “Day 0” controls were determined by performing CellTiter-Glo© assay on DMSO control wells at the time of compound treatment (“Day 0” control=0 POC). Luminescence was measured on a Cytation 5 plate reader (BioTek) and values were converted to POC using the following equation:
(§6) [formula] • Where: • Xmax Average DMSO Controls • Xmin Average “Day 0” DMSO Controls • IC50 values were calculated using a 4-parameter fit in XLfit software and are shown in Table A2.

The subject of assay [5] is WM3629 cells (BRAF D594G/NRAS G12D). The assay is described as follows: Proliferation assay (CellTiter-Glo) in WM3629 cells. To be noted: 3-5 day incubation. It is filed as cell-based. Here is the method:
as §4, §5, §6

Sequence of full-length FLAG-tagged B-Raf(V600E) (P15056 whole entry V600E): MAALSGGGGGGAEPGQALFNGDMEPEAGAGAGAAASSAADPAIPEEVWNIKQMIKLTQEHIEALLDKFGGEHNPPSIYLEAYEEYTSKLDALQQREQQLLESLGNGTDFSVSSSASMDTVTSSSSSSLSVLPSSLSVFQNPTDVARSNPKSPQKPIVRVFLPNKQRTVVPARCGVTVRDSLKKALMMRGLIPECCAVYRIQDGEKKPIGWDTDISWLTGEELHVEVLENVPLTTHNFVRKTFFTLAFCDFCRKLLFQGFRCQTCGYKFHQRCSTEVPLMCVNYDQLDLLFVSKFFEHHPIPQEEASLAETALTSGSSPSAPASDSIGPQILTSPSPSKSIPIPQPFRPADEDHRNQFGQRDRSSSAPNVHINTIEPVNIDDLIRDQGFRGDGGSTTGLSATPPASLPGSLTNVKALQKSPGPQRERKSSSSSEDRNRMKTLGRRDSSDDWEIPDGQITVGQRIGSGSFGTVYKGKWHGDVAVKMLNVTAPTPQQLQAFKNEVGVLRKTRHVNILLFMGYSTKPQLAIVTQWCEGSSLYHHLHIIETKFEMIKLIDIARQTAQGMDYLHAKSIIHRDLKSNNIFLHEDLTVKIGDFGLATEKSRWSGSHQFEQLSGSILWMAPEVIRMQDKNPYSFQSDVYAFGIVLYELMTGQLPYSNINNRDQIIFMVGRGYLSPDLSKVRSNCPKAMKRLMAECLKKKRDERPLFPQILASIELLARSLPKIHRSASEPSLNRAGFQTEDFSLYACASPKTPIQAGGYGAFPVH

Regarding `Cn1cnc2ccc(Nc3c(F)ccc(NS(=O)(=O)N4CC5CC4C5)c3Cl)c(F)c2c1=O` [Example 13, N-(2-chloro-4-fluoro-3-((5-fluoro-3-methyl-4-oxo-3,4-dihydroquinazolin-6-yl)amino)phenyl)-2-azabicyclo[2.1.1]hexane-2-sulfonamide], the IC50 is 6 nM in assay [1]; 15 nM in assay [2]; 0.7 nM in assay [3]; 240 nM in assay [4]; over 10 µM in assay [5].
Regarding `Cn1cnc2ccc(Nc3c(F)ccc(NS(=O)(=O)N4CC[C@@H](F)C4)c3Cl)c(F)c2c1=O` [Example 14, (R)-N-(2-chloro-4-fluoro-3-((5-fluoro-3-methyl-4-oxo-3,4-dihydroquinazolin-6-yl)amino)phenyl)-3-fluoropyrrolidine-1-sulfonamide], the IC50 was 5 nM in assay [1]; 7.1 nM in assay [2]; 0.2 nM in assay [3]; 120 nM in assay [4]; over 10 µM in assay [5].

The record behind these values is patent US12303509B2, “Compounds for the treatment of BRAF-associated diseases and disorders” (Pfizer Inc., priority 2020, dated 2025).
